Here are results for 4 compounds from paper PMC12290960, “Eremanthus erythropappus as a Source of Antiparasitic Agents: In Vitro and In Vivo Efficacy against Schistosoma mansoni” (ACS Omega, 2025).

pEC50: −log10 of the molar value.

The test system of data set [1] is S. mansoni adult worms. In words: In vitro antischistosomal assay on adult worms (mortality/viability by motility). The data set is classed as cell-based, Schistosoma mansoni. Particulars: for pEC50: Schistosoma mansoni, mortality of S. mansoni adult worms, 95% CI in square brackets; for in vitro antischistosomal activity (in words): concentrations of up to 50 μM.

Data set [2] relates to Vero cells. In words: Cytotoxicity in mammalian cells (MTT assay). The following applies: CC50 on Vero cells divided by EC50 on schistosomes. A general note: Formazan colour is commonly taken as a measure of viable cells.
The subject of data set [3] is S. mansoni (49 day old adult infection). Kind of data set: In vivo antischistosomal assay in S. mansoni-infected mice (worm burden, oogram, fecal egg count). Particulars: for worm burden reduction (WBR): single dose 400 mg/kg p.o., treated 49 days postinfection, vs vehicle control. More on the design: species or system Schistosoma mansoni. Here is the method:
The Belo Horizonte strain of Schistosoma mansoni was maintained in its life cycle using Biomphalaria glabrata snails (intermediate hosts) and female Swiss mice (final hosts). Three week old female Swiss mice (∼20 g) were obtained from […] para Laboratório (São Paulo, Brazil). Infected snails and mice were housed under controlled conditions (25 °C, 50% humidity, and 12 h light/dark cycles) with ad libitum access to food and water. Mice were percutaneously infected with 80 S. mansoni cercariae and treated 49 days postinfection (adult worm stage). […] At 63 days postinfection, mice were euthanized (CO2), and worms were recovered by mesenteric perfusion. Worm burden reduction was calculated after sexing, , and fecal egg counts were performed as previously described. , The study complied with ARRIVE guidelines, including randomization to minimize bias.

Data set [4] is described as follows: in vitro. The following applies: African green monkey.

By pEC50 is commonly meant the EC50 on a negative log10 scale, so that one unit is a factor of ten. `O=C(C1CCCCC1)N1CC(=O)N2CCc3ccccc3C2C1` (stereo not shown) [praziquantel] had a pEC50 in data set [1] of 6.10. The “SI (selectivity index)” value in data set [2] is above 625. For the same compound, in data set [3] (400 mg/kg p.o., 49 day old adult infection), the “reduction in immature egg deposition (oogram, EBR immature)” value is 96.8%. In addition, in data set [3] (400 mg/kg p.o., 49 day old adult infection, vs control), the “reduction in number of eggs per gram of feces (egg load, EBR)” value is 93.9%. The “worm burden reduction (WBR)” value in data set [3] turned out to be 92.6%. In data set [4], the CC50 at 72 h was above 500 µM.

With `C[C@H]1C(=O)CC[C@@H]2[C@]1(C)CC[C@H]1[C@@]2(C)CC[C@@]2(C)[C@@H]3CC(C)(C)CC[C@]3(C)CC[C@]12C` [friedelin (7), friedelan-3-one], in data set [1], the pEC50 was below 4.30 and the “in vitro antischistosomal activity (in words)” value was “inactive”.

In the case of `COc1ccc(-c2cc(=O)c3c(O)cc(O)cc3o2)cc1` [acacetin (14), 5,7-dihydroxy-4′-methoxyflavone], in data set [1], the pEC50 was below 4.30 and the “in vitro antischistosomal activity (in words)” value was “inactive”.

In the case of `C=C(C)[C@@H]1CC[C@]2(C(=O)O)CC[C@]3(C)[C@H](CC[C@@H]4[C@@]5(C)CC[C@H](O)C(C)(C)[C@@H]5CC[C@]43C)[C@@H]12` [betulinic acid (8), 3β-hydroxy-20(29)-lupaene-28-oic acid], in data set [1], the pEC50 was 4.43. In data set [3], the “worm burden reduction (WBR)” value was determined as 41.9%. For the same compound, the CC50 in data set [4] is above 500 µM.
